# In publication PMC4363635 (PLoS ONE, 2015):
# Ends that are not written are not given here. Peptide text beside a SMILES is read from it.
# Key:
# [1] = Stability in human plasma; assay type: in vitro ADME; settings: human plasma in Krebs-Henseleit buffer
# Experimental: (§1) In vitro chemical and metabolic stability was determined in cell medium and human plasma, respectively, using previously described procedures. In brief, 100 μg of peptide was incubated in Krebs-Henseleit buffer pH 7.4 with cell medium/plasma (500 μl) at 37°C while shaking. […] The enzyme reaction was further stopped by heating the solution at 95°C for 5 minutes. Next, the samples were centrifuged to precipitate the denatured proteins and the supernatant analyzed using UPLC-PDA. Appropriate placebo solutions were similarly prepared. Assuming first-order kinetics, the rate constant k was obtained from ln(Pt/Pt0) = -kt, from which the half-life was determined as t1/2 = ln(2)/k.
# Stability in cell medium = assay type: in vitro ADME; settings: cell medium in Krebs-Henseleit buffer, 37°C
# Experimental: as §1
# Caco-2 monolayer = assay: Caco-2 permeability assay; settings: for intestinal permeability (in words): Caco-2 monolayer, 10 μM in HBSS
# in vitro = settings: human, Caco-2
# MCF-7/AZ cells = assay: Collagen type I invasion assay; assay type: cell-based, human; settings: 24 hours post-treatment; 1 μM, 100 nM and 10 nM; positive if collagen-invasion or cell-stretching at minimum 2 consecutive concentrations; n = 3
# Experimental: Morphology changes of MCF-7/AZ cells were investigated using previously described methods [12]. […] Peptide solutions (S1 Table) (> 80% purity; all from GL Biochem, Shanghai, China) were prepared using ultrapure water and DMSO, obtaining final peptide concentrations of 1 μM (maximum 0.05% DMSO), 100 nM and 10 nM after 1:10 dilution using growth medium. […] To quantify these visual results, the number of cells containing invasive extensions were counted and compared to the total number of cells in the field.
# [2] = human, pH 7.4, human plasma, Krebs-Henseleit buffer pH 7.4, 37°C, 0, 30 and 120 minutes, first-order kinetics, read-out: Plasma half-life (converted)
# [3] = Krebs-Henseleit buffer pH 7.4 with cell medium, 0, 6 and 24 hours, first-order kinetics, read-out: Cell medium half-life (converted)
# [4] = human, pH 7.4, footnote a, human plasma, 37°C, sampled up to 120 minutes, read-out: calculated half-life in plasma
Compound,"half-life [1, 2] [h]",half-life (Stability in cell medium; [3]) [h],intestinal permeability (in words) (Caco-2 monolayer),"Papp A→B at 120 min, 10 μM (in vitro) [×10⁻⁶ cm/s]","half-life [1, 4] [h]",other results
"NC(=O)C[C@H](NC(=O)[C@H](Cc1c[nH]c2ccccc12)NC(=O)[C@@H](N)CC(N)=O)C(=O)O [EDF-analogue, NWN] (H-Asn-Trp-Asn-OH; N-terminus and C-terminus assumed)",4.47,42,can pass the intestinal barrier,0.141,–,"efflux ratio change using the PepT1 substrate LY (Caco-2 monolayer; 10 μM peptide plus dipeptide LY (10 μM)): doubled; intestinal permeability (in words) (Caco-2 monolayer; listed as NWN): low intestinal permeability kinetics; absorption in humans (in vivo) corresponding to in vitro Papp values (Caco-2 monolayer; in vivo-in vitro correlation studies ref 15, 33): 5–10%; efflux ratio at 120 min, 10 μM (in vitro): 1.1"
ARNQT [PhrA],–,–,–,–,–,tumour cell invasion through a type I collagen extracellular matrix (morphology scoring) (MCF-7/AZ cells): did not induce invasive characteristics
"EKMIG [PhrG, EKMIG]",> 13,–,does not show any absorption from the intestinal lumen,< 0.0069,13.2,"half-life (Stability in cell medium; pH 7.4, Krebs-Henseleit buffer pH 7.4 with cell medium, 0, 6 and 24 hours, first-order kinetics, read-out: Cell medium half-life (converted)): 160 h; half-life (Stability in cell medium; pH 7.4, footnote a, sampled up to 24 hours, read-out: calculated half-life in cell medium): 158 h; Papp B→A at 120 min, 10 μM (in vitro): 0.0137 ×10⁻⁶ cm/s"
EMRKSNNNFFHFLRRI [CSP],–,45.8,–,–,–,"half-life ([1]; human plasma, Krebs-Henseleit buffer pH 7.4, 37°C, 0, 30 and 120 minutes, first-order kinetics, read-out: Plasma half-life (converted)): 8.73 h"
"NNWNN [EDF, NNWNN]",> 13,16.2,impermeable,–,13.2,"Papp at 120 min, 10 μM (in vitro): < 0.0029 ×10⁻⁶ cm/s"
